In brackets after ≈: the same amount, converted by molar mass.
Tests used:
E. coli ATCC 25922 [1] = assay: Dielectrophoretic test (cell elongation, crossover frequency); assay type: cell-based, Escherichia coli; conditions: for dielectrophoretic behaviour and cell elongation: alternating current frequency 600 kHz
Procedure: Phosphate-buffered saline (PBS) containing 137 mM NaCl, 2.7 mM KCl, 4.3 mM Na2HPO4, and 1.47 mM KH2PO4 at pH 7.4 was prepared. An oral β-lactam antibiotic, cephalexin (Sigma, USA), which generally is used in the treatment of urinary tract infection (UTI), was dissolved in 1×PBS and prepared into a stock concentration of 1024 μg/mL. This stock concentration was diluted with trypticase soy broth (TBS) into 4 μg/mL and 32 μg/mL.
Among different cell lines of Escherichia coli causing urinary infection, E. coli ATCC 25922 was selected and cultured with TBS under shaking at 37° C. Then, the bacterial concentration of the culture suspensions was adjusted to 1.5×10^6 cells/ml by a densitometer (VITEK 2, BioMérieux).
(§1) The bacterial suspension (100 μl) and TBS culture media (containing the antibiotic at different concentrations, 900 μl) were mixed ([…]) and incubated at 37° C. in a shaking incubator for 60 minutes. After the treatment, the bacterial suspensions (500-1000 μl) were centrifugated at 3000-5000 rpm for 3-5 minutes. The supernatant of the bacterial suspensions was removed. Finally, 0.2 M 4-(2-hydroxyethyl)-1-piperazineethanesulfonic acid (HEPES) buffer (500 μl, σ=3 mS/cm, Invitrogen 15630) was added to the remaining bacteria and the formed bacterial suspensions were shaken using a vortex mixer (Shin Kwang, Taiwan) for 30 seconds to avoid aggregation of the bacteria for the following dielectrophoretic tests.
(§2) The bacterial suspensions (5 μl) were pipetted into a sample well of the chip of Preparation Example 1. The electrode array was then connected to a function generator (Fluke 284 USA) and supplied with an alternating current signal or dielectrophoresis. The frequency of E. coli migrating from the electrode center to the electrode edge, was determined as crossover frequency (cof). During dielectrophoresis, the images were observed and recorded through an inverted microscope (Olympus IX70, Japan) and a CCD camera (Microfire, Optronics).
In the same manner as that of Example 1, the antibiotic solutions at 1 μg/mL, 2 μg/mL, 4 μg/mL, 8 μg/mL, 16 μg/mL, 32 μg/mL, and 64 μg/mL were prepared and their action periods of time were 30, 60, and 120 minutes. In addition, the chip of Preparation Example 2 was used in the analysis. For measurement of the cell length of E. coli during dielectrophoresis, when the bacteria were straightly arranged on an ITO quadruple electrode by field-induced dielectrophoretic force, the cell length was analyzed by the image software (FreePlus32).
(§3) In the same manner as that of Example 1, a cefazolin solution at 2 μg/mL was prepared and used to act on E. coli ATCC 25922, w958, and BCRC 15501 for 120 minutes for the following dielectrophoretic testing. Among these cell lines, E. coli w958 from National Cheng Kung University Hospital in Taiwan is a drug-resistant bacterium isolated from clinical samples.

E. coli = assay: Conventional agar dilution method; assay type: cell-based; conditions: Escherichia coli
Description: In order to confirm that the MIC determined in Example 2 of the present invention is not different from that determined in conventional methods, an agar dilution method was used to determine the MIC of cephalexin to E. coli.

E. coli BCRC 15501 [2] = assay: Dielectrophoretic test (cell elongation); assay type: cell-based, Escherichia coli; conditions: cefazolin 2 μg/mL, 120 minutes
Procedure: as §1, §2, §3

E. coli w958 [3] = assay: Dielectrophoretic test (cell elongation); assay type: cell-based, Escherichia coli; conditions: cefazolin 2 μg/mL, 120 minutes
Procedure: as §1, §2, §3

E. coli ATCC 25922 [4] = assay: Conventional broth dilution method; assay type: cell-based; conditions: Escherichia coli, ATCC25922, 0-16 μg/mL tested, read-out: inhibitory concentration (MIC)
Procedure: (§4) In order to confirm that the results from Example 3 of the present invention are not different from those from a conventional method, a broth dilution method was carried out on E. coli ATCC 25922, w958, and BCRC 15501 at 0 μg/mL, 0.5 μg/mL, 1 μg/mL, 2 μg/mL, 4 μg/mL, 8 μg/mL, 16 μg/mL of cefazolin. The results are shown in FIGS. 6 (a) to (c), wherein No denotes no bacteria.

E. coli BCRC 15501 [5] = assay: Conventional broth dilution method; assay type: cell-based; conditions: Escherichia coli, BCRC15501, 0-16 μg/mL tested, read-out: inhibitory concentration (MIC)
Procedure: as §4

E. coli w958 [6] = assay: Conventional broth dilution method; assay type: cell-based; conditions: Escherichia coli, 0-16 μg/mL tested, read-out: inhibitory concentration (MIC)
Procedure: as §4

Row | Compound | crossover frequency (cof) (E. coli ATCC 25922 [1]; 32 μg/mL for 60 minutes) | cell length (E. coli ATCC 25922 [1]; 1-64 μg/mL, 30, 60, 120 minutes, FIGS. 3 (a) and (c)) | MIC (E. coli ATCC 25922 [1]; Escherichia coli, ATCC25922, 1 h, determined by dielectrophoresis, 60 minutes, read-out: minimum inhibitory concentration (MIC)) | morphological cell elongation (E. coli ATCC 25922 [1]; FIG. 2 (c), text prints 60 minutes, figure legend 120 minutes) | cell elongation (E. coli ATCC 25922 [1]; antibiotic 4 μg/ml, 60 minutes, alternating current frequency 4 MHz) | dielectrophoretic behaviour and cell elongation (E. coli ATCC 25922 [1]; antibiotic 4 μg/ml, 60 minutes) | cell elongation (E. coli ATCC 25922 [1]; antibiotic 32 μg/ml for 1 hour, alternating current frequency 4 MHz) | dielectrophoretic behaviour and cell elongation (E. coli ATCC 25922 [1]; antibiotic 32 μg/ml for 1 hour) | morphological changes in bacteria (E. coli ATCC 25922 [1]; antibiotic treatment for 30 minutes, FIG. 2 (a)) | morphological cell elongation (E. coli ATCC 25922 [1]; antibiotic treatment for 60 minutes, FIG. 2 (b)) | MIC (E. coli) | cell elongation (E. coli ATCC 25922 [1]; cefazolin 2 μg/mL, 120 minutes) | drug resistance of the bacterium (E. coli ATCC 25922 [1]; cefazolin 2 μg/mL, 120 minutes) | cell elongation (E. coli BCRC 15501 [2]) | drug resistance of the bacterium (E. coli BCRC 15501 [2]) | drug resistance of the bacterium (E. coli w958 [3]) | morphological cell elongation (E. coli w958 [3]) | MIC (E. coli ATCC 25922 [4]) | MIC (E. coli BCRC 15501 [5]) | MIC (E. coli w958 [6])
1 | CC1=C(C(=O)O)N2C(=O)[C@@H](NC(=O)[C@H](N)c3ccccc3)[C@H]2SC1 [cephalexin] | about 600 kHz | cell length increases as the concentration and action time increase | 32 µg/mL (≈ 92.1 µM) | morphological cell elongation occurs obviously even at a low concentration of the antibiotic | some bacteria are slightly elongated | some bacteria are still arranged at the center of the electrodes by negative dielectrophoretic force. However, the others are adsorbed at the edges of the electrode by positive dielectrophoretic force and slightly elongated | all bacteria have become elongated | all bacteria are adsorbed at the edges of the electrode by positive dielectrophoretic force and have become elongated | distinction between morphological changes in bacteria is difficult | morphological cell elongation occurs obviously as the antibiotic concentrations increase | 32 to 64 µg/mL (≈ 92.1 to 184 µM) | – | – | – | – | – | – | – | – | –
2 | Cc1nnc(SCC2=C(C(=O)O)N3C(=O)[C@@H](NC(=O)Cn4cnnn4)[C@H]3SC2)s1 [cefazolin] | – | – | – | – | – | – | – | – | – | – | – | obvious cell elongation occurs | not resistant to cefazolin | obvious cell elongation occurs | not resistant to cefazolin | resistant to cefazolin | morphological cell elongation is unobvious | 2 µg/mL (≈ 4.4 µM) | 2 µg/mL (≈ 4.4 µM) | > 16 µg/mL

— US8911605B2, “Method for antibiotic susceptibility testing and determining minimum inhibitory concentration of the antibiotic” (National Cheng Kung University, priority 2011, dated 2014)
